From patent publication US20220202753A1, “METHOD OF DELIVERY OF INTRAVENOUS BACLOFEN” (Allaysis, LLC, priority 2020, published 2022)
In brackets after ≈: the same amount, converted by molar mass.

Experiments:
[1] = Population pharmacokinetic modeling and simulation of IV baclofen infusion duration; parameters: species or system human
Method: Plasma concentrations from cohorts 2 and 3 from Study 2 described above were used to build a two-compartment model simultaneously describing the IV and PO routes of administration. Population PK models were developed using data from cohort 3 and cohorts 2 and 3 combined (see FIGS. 4 and 5). It is worth noting that the PK parameter estimates from both study populations were similar. Two PK models with fixed absorption rate constants (Ka) of 0.6 and 0.8 hr^−1 were used. These were determined from estimates from the population pharmacokinetic model and literature.
To assess the effect of infusion duration on Cmax and AUC, simulations were performed using the population PK parameter estimates determined from the baclofen dose ranging study. Using the models described above, simulations (n=10) of 30 subjects were completed using a 20 mg oral dose and IV doses of 15 and 16 mg infused over 120, 150, 180, and 210 minutes. The simulated data were then analyzed using non-compartmental analysis and bioequivalence of the maximum concentration and area under the curve was assessed. FIGS. 10 and 11 summarize how many times of the 10 simulations that the infusion rate met bioequivalence when 16 and 15 mg doses were used, respectively.
To assess the effect of infusion duration on Cmax, a population pharmacokinetic model was developed using the observed plasma concentrations of baclofen following oral dosing of 20 mg and IV dosing of 15 mg infused over 10 and 60 minutes. Plasma concentrations of baclofen were best described by a two-compartment model, displaying a very rapid tissue distribution phase indicative of highly perfused tissues such as the liver, lung and brain and a more prolonged elimination phase. […] Using the PK model, baclofen concentrations for a 20t mg oral dose, a 15 mg IV dose infused over 180 minutes, and 16 mg IV dose infusions administered over 180 and 240 min were simulated. This allowed a determination of the effect of infusion duration on baclofen Cmax.

[2] = Study 2: dose escalation study of IV baclofen in healthy adult volunteers; type: in vivo, human; settings: for subjects with asymptomatic nystagmus: 10-minute infusion, of 12 subjects; for bioavailability: human, plasma
Method: Study 2: Dose Escalation Study of IV Baclofen in Healthy Adult Volunteers
Following completion of the first-in-human study, a dose escalation study of IV and oral baclofen in 36 healthy volunteers was carried out using a randomized crossover oral/IV dose design and incorporating the investigational baclofen IV injection. The objectives of the study were: 1) characterize the pharmacokinetics of clinically relevant doses of oral and intravenous baclofen, 2) determine the safety profile of oral and intravenous baclofen, and 3) estimate bioequivalence parameters (AUC and Cmax) for 10- and 60-minute (only 15 mg dose) infusions of baclofen.
The general design of the study involved three cohorts of 12 subjects. Initially 3 subjects were randomized to receive the lowest dosing regimen. These subjects received a 7.5 mg IV infusion, followed by a washout period of 2 or more days, followed by a 10 mg oral dose. […] Twelve subjects completed Cohort 1 and received a […] IV and a 10 mg oral dose. The IV baclofen doses were based on a 75% bioavailability observed in the pilot study. In Cohort 2, 12 different subjects received 11.5 mg of IV and 15 mg of oral baclofen. In Cohort 3, another 12 subjects received 20 mg of oral and 15 mg of IV baclofen. Once all subjects had completed the 15 mg IV dose without complications, an additional dosing period was added to this Cohort in which 15 mg baclofen was infused over 60 in to 12 subjects. […] Blood samples were collected between 0-24 hours. A validated, liquid chromatography-mass spectroscopy assay was used to measure plasma baclofen concentrations.
Pharmacokinetic analysis was performed with Phoenix (Centara), a pharmacokinetic data analysis package. Pharmacokinetic parameters, including the observed maximum concentration (Cmax), the observed time to maximum concentration (Tmax), area under the concentration-time curve (AUC), clearance (CL), and volume of distribution (Vd), were estimated using non-compartmental analysis. The absolute oral bioavailability was calculated by dividing the dose-normalized AUC after oral dosing by the dose-normalized AUC after intravenous dosing. For an exploratory study of bioequivalence, the 90% confidence intervals of the geometric mean AUC(0-t), AUC(0-∞) and Cmax oral/AV ratios were determined using the 60-minute infusion as the test dose and the oral […] dose as the reference.

[3] = Study 1: two-way crossover study of oral and intravenous baclofen in healthy adult volunteers; type: in vivo, human
Excerpt: Study 1: Two-Way Crossover Study of Oral and Intravenous Baclofen in Healthy Adult Volunteers
The objective of the study was to characterize baclofen pharmacokinetics following oral and IV administration following low doses in healthy adult volunteers and determine the safety profile of an IV baclofen formulation.
This study was a randomized, open label, balanced, two-treatment, single dose, crossover design in normal, healthy adult human subjects under fasting conditions.
Initially, three adult volunteers received a single 3 mg IV and a 5 mg oral baclofen dose on separate study days. On the first day of drug administration in the study, one subject was given baclofen intravenously, and two subjects were given baclofen orally. On the second day of drug administration in the study, those that received baclofen orally received the TV dose and the individual who received the IV dose received the oral dose. Clinical tolerance was assessed, and plasma concentrations of baclofen were measured from the first three subjects before additional subjects were entered into the study. Nine additional adult volunteers received single 5 mg IV and 10 mg oral baclofen doses on separate days. Randomization occurred in a 1:1 ratio, such that all subjects received IV and oral baclofen on separate study days, but not necessarily in the same order. A total of twelve (12) subjects completed the clinical phase of the study. Plasma samples of 12 subjects were analyzed. However, the data from nine (9) subjects who received 5 mg IV and 10 mg oral tablet were considered for pharmacokinetic analysis and the calculation of within-subject variability. The three subjects who received 3 mg IV/5 mg oral baclofen were excluded from the pharmacokinetic analysis because more than half of the plasma concentrations were below the limit of quantitation (BLQ). Therefore, meaningful estimation of AUC was not possible for these subjects.

[4] = Clinical bioequivalence study of baclofen injection compared to baclofen tablets in healthy adult volunteers; type: in vivo, human
Excerpt: This study was designed as a two-part, single-dose bioequivalence study of baclofen injection (test formulation) compared to commercial baclofen tablets (reference product) in healthy adult volunteers under fasted conditions. Part 1 of this study was a single-dose, open-label, four-treatment, randomized, crossover bioequivalence study of baclofen tablets and baclofen injection in healthy adults under fasted conditions. If needed, Part 2 of this study was to be a single-dose, two-way crossover between the most promising infusion of baclofen injection from Part 1 and baclofen tablets.
Subjects were randomized to receive each of 4 treatments in a randomized, crossover fashion: • 15 mg of baclofen injection administered intravenously over 180 minutes • 16 mg of baclofen injection administered intravenously over 180 minutes • 16 mg of baclofen injection administered intravenously over 240 minutes • 20 mg of baclofen tablet administered orally
Each treatment administration was separated by a washout period of at least 3 days. Each dose was administered following a 10-hour overnight fast.
During each study period, 6 mL blood samples were obtained prior to study drug administration and at selected times through 48 hours after drug administration. In the study periods in which subjects received an IV infusion. PK sampling was timed relative to the start of the infusion. Plasma pharmacokinetic samples were analyzed for baclofen using a validated achiral bioanalytical method. Appropriate pharmacokinetic parameters were calculated for each formulation using non compartmental methods.
Treatments A, B, and C: • Treatment A dose:=15 mg of baclofen injection administered intravenously over 180 minutes • Treatment B dose=16 mg of baclofen injection administered intravenously over 180 minutes • Treatment C dose=16 mg of baclofen injection administered intravenously over 240 minutes
Control Product: Treatment D: • Baclofen Tablet, 20 mg, dose:=1×20 mg tablet
Concentration-time data for baclofen were analyzed using noncompartmental methods in Phoenix™ WinNonlin® Version 6.3, Certara L.P.). During the pharmacokinetic analysis, concentrations below the limit of quantitation […] up to the time of the first quantifiable concentration were treated ac zero. Embedded (values between 2 quantifiable concentrations) and/or terminal BLQ concentrations were treated as “missing”. Actual sample times, relative to the time of dose, were used in the pharmacokinetic analysis.
During each baclofen injection treatment period, samples were drawn at 0 hour (predose) and 0.5, 1.0, 1.5, 2.0, 2.5, 3.0, 3.5, 4.0, 4.5, 5.0, 6.0, 7, 8, 10, 12, 18, 24, 30, 36, and 48 hours after starting the infusion.
During the baclofen tablet administration treatment period, samples were drawn at 0 hour (predose) and at 0.25, 0.5, 0.75, 1.0, 1.5, 2.0 3.0, 3.5, 4.0, 5.0, 6.0, 7, 8, 10, 12, 18, 24, 30, 36, and 48 hours after oral administration.

[5] = cited from earlier work
[6] = Combined results of the two pilot pharmacokinetic studies (first in human and dose escalation); type: in vivo; settings: for bioavailability: human, plasma
Method: Two pilot studies were conducted to characterize baclofen pharmacokinetics and safety following intravenous administration and to access absolute bioavailability of IV and oral baclofen. These studies are described in: A Pilot Study Assessing Pharmacokinetics and Tolerability of Oral and Intravenous Baclofen in Healthy Adult Volunteers, Suresh K. Agarwal, Robert L. Kriel, James C. Cloyd, Lisa D. Coles, Lisa A. Scherkenbach, Michael H. Tobin, and Linda E. Krach, Journal of Child Neurology 2014, 30(1) 37-41; and A Randomized Dose Escalation Study of intravenous Baclofen in Healthy Volunteers: Clinical Tolerance and Pharmacokinetics, Schmitz N S, Krach L E, Coles L D, Mishra U, Agarwal S K, Cloyd J C, Kriel R L. PM&R, 2017, Volume 9(8), 743-750, both hereby incorporated by reference as though fully set forth herein. […] In order to meet bioequivalency criteria for both exposure (AUC) and peak concentration (Cmax), it was concluded that infusion times needed to be longer. To that end, modeling and simulation studies were performed to predict IV baclofen dosing regimens that would be bioequivalent to a 20 mg oral dose with respect to both AUC and Cm. These simulations formed the basis for a pivotal bioequivalence study where three different dosing regimens of baclofen IV (15 mg infused over 3 hours: 16 mg infused over 3 hours; and 16 mg infused over 4 hours, respectively) were compared to a single dose of a 20 mg oral tablet. Each of these IV regimens was bioequivalent to the 20 mg oral dosing but the 16 mg/3 hours dosing best met the bioequivalence criteria.
An important goal for adjusting the dose and duration of a baclofen infusion was to achieve bioequivalent systemic exposure (Cmax and AUC) between a single-dose baclofen IV infusion and a 20 mg oral baclofen tablet.

[7] = 5 mg IV infused over 15 minutes vs 10 mg oral

mean bioavailability ([1]; population PK model estimate): 84% | population mean terminal t1/2 (β) ([1]; two-compartment population PK model): approximately 4.2 hours | mean distribution t1/2 ([1]; two-compartment population PK model, 20 mg oral, 15 mg IV over 10 and 60 minutes): ~0.3 h | subjects with asymptomatic nystagmus ([2]; 7.5 mg IV): 2 subjects | subjects with asymptomatic nystagmus ([2]; 11.5 mg IV): 6 subjects | subjects with asymptomatic nystagmus ([2]; 15 mg IV): 6 subjects | subjects with nystagmus ([2]; 15 mg IV, 60-minute infusion): two | bioequivalence of baclofen IV and oral baclofen by AUC0-t and AUC0-inf ([2]; 15 mg at 60-min infusion): not | bioequivalence of IV infusions and oral baclofen by Cmax ([2]; 10- and 60-minute IV infusions): not bioequivalent | bioequivalence of baclofen IV and oral baclofen by AUC0-t and AUC0-inf ([2]; 10-min infusions at all dose levels): demonstrated | mean Cmax ratio of IV infusion to oral baclofen ([2]; 10-minute IV infusion, CI 247-281%): 263% | mean Cmax ratio of IV infusion to oral baclofen ([2]; 60-minute IV infusion, CI 135-165%): 149% | bioavailability ([2]; oral, all cohorts, read-out: estimated mean bioavailability): 89% | bioavailability ([2]; cohort 2 (11.5 mg IV, 15 mg oral), read-out: bioavailability estimate): 85.8% | bioavailability ([2]; cohort 3 (15 mg IV, 20 mg oral), read-out: bioavailability estimate): 81.2% | subjects not awake (took 20 seconds to awaken) ([2]; three and a half hours after a 10 mg oral dose): one | AUC of IV dose compared with oral dose [3, 7]: similar | Cmax of IV dose compared with oral dose [3, 7]: higher | Tmax of IV dose compared with oral dose [3, 7]: earlier | bioavailability ([3]; human, plasma, 10 mg oral vs 5 mg IV, n=9, fasting, read-out: estimated mean absolute bioavailability of oral baclofen): 74% | geometric mean ratio vs. Treatment D (20 mg oral tablet) for AUClast ([4]; 16 mg IV over 180 minutes, 90% CI 89.7-94.6%): 92.1% | geometric mean ratio vs. Treatment D (20 mg oral tablet) for AUCinf ([4]; 16 mg IV over 180 minutes, 90% CI 89.8-94.6%): 92.2% | geometric mean ratio vs. Treatment D (20 mg oral tablet) for Cmax ([4]; 16 mg IV over 180 minutes, 90% CI 93.7-101.0%): 97.3% | median Tmax ([4]; 20 mg oral tablet, fasted): 1.0 h | conversion factor to the oral regimen giving bioequivalent substitution ([4]; IV administered over 180 minutes): 0.8 | bioequivalence to the 20 mg baclofen oral tablet ([4]; all three IV infusions: 15 mg over 180 min, 16 mg over 180 min, 16 mg over 240 min): bioequivalent | half-life ([4]; human, plasma, other: intravenous infusions and oral tablet, IV infusions and oral tablet, read-out: mean T1/2): 5.5 to 5.8 h | difference in median Tmax (oral tablet earlier than IV infusions) ([4]; human, plasma, other: oral tablet versus intravenous infusions, 20 mg oral tablet vs IV infusions): 2 to 3 h | Tmax ([4]; human, plasma, across IV infusions (15 mg/180 min, 16 mg/180 min, 16 mg/240 min), read-out: median Tmax): 3 to 4 h | clearance ([4]; human, plasma, across IV infusions, read-out: mean total systemic clearance (CLT)): 147 to 148 mL/min | Vd ([4]; human, plasma, across IV infusions, read-out: mean volume of distribution (Vz)): 69.8 to 71.4 L | bioavailability ([6]; oral, 45 subjects, read-out: inter-patient range of % F): 42 to 132% | bioavailability ([6]; oral, two pilot studies, 10- to 60-minute IV infusions, healthy volunteers, read-out: estimated mean bioavailability of oral baclofen): 74 to 85% | bioavailability ([6]; po, 11.5 mg, read-out: mean oral bioavailability): 80% | bioavailability ([6]; po, 15 mg, read-out: mean oral bioavailability): 85% | bioavailability ([6]; po, 45 subjects, read-out: mean bioavailability of oral baclofen following a single dose): ~86% | ratio of an IV to an oral dose ([6]; two prospective studies in healthy volunteers): 80-85%
Compound: NCC(CC(=O)O)c1ccc(Cl)cc1 (centres unmarked) [baclofen, 4-amino-3-[4-chlorophenyl] butanoic acid]
subjects with mild transient ataxia ([2]; 15 mg IV, 60-minute infusion): Two | subjects with mild transient ataxia ([2]; 20 mg oral): One | adverse effects ([2]; following both oral and IV doses): Mild, self-limited | tolerability ([3]; 3 and 5 mg IV): well tolerated | solubility in chloroform ([5]; chloroform): insoluble | solubility in methanol ([5]; methanol): very slightly soluble | solubility in water ([5]; water): 2090 µg/mL (≈ 9.78 mM)
